Results: US8629173B2, “Solid forms comprising (+)-2-[1-(3-ethoxy-4-methoxyphenyl)-2-methylsulfonylethyl]-4-acetylaminoisoindoline-1,3-dione, compositions thereof, and uses thereof” (Celgene Corporation, priority 2002, dated 2014)

Columns and labels:
[1] = target: PDE3 from human platelets (Homo sapiens, UniProt Q14432); assay: PDE3 enzyme assay; format: biochemical
[2] = system: IL-1β-induced TNF-α production from human PBMC; assay: IL-1β-induced TNF-α production from human PBMC; format: cell-based; conditions: 18 h, read-out: IL-β-induced TNF-α IC50
Method: During the course of inflammatory diseases, TNF-α production is often stimulated by the cytokine IL-1β, rather than by bacterially derived LPS. Compounds were tested for the ability to inhibit IL-1β-induced TNF-α production from human PBMC as described above for LPS-induced TNF-α production, except that the PBMC were isolated from source leukocyte units (Sera-Tec Biologicals, North Brunswick, N.J., USA) by centrifugation on Ficoll-Paque Plus (Amersham Pharmacia, Piscataway, N.J., USA), plated in 96-well tissue culture plates at 3×10^5 cells/well in RPMI-1640 medium (BioWhittaker, Walkersville, Md., USA) containing 10% heat-inactivated fetal bovine serum (Hyclone), 2 mM L-glutamine, 100 U/ml penicillin, and […] (complete medium), pretreated with compounds at 10, 2, 0.4, 0.08, 0.016, 0.0032, 0.00064, and 0 μM in duplicate at a final DMSO concentration of 0.1% at 37° C. in a humidified incubator at 5% CO2 for one hour, then stimulated with 50 ng/ml recombinant human IL-1β (Endogen) for 18 hours.

[3] = pH 7.4
[4] = system: Zymosan-induced IL-8 production in human neutrophils; assay: Zymosan-induced IL-8 production; format: cell-based; conditions: Neutrophil, 18 hours
Method: Zymosan A, or the heat-killed yeast Saccharomyces cerevisiae, binds to the adhesion molecule Mac-1 on the neutrophil surface and triggers phagocytosis, cell activation and IL-8 production. Zymosan-induced IL-8 production was measured as previously described (Au et al., 1998, Brit. J. Pharm., 123:1260-1266) with the following modifications. Human neutrophils were purified as described above, plated in 96-well tissue culture plates at 3×10^5 cells/well in complete medium, treated with compounds at 10, 2, 0.4, 0.08, 0.016, 0.0032, 0.00064, and 0 μM in duplicate in a final DMSO concentration of 0.1% for 1 hour at 37° C. 5% CO2. Neutrophils were then stimulated with unopsonized, boiled Zymosan A (Sigma) at 2.5×10^5 particles/well for 18 hours. Supernatants were harvested and tested for IL-8 by ELISA (R&D Systems).

[5] = system: SEB-induced IFN-γ production; assay: cells; format: cell-based; conditions: Homo sapiens, PBMC, 18 h, read-out: IFN-γ IC50
[6] = system: LPS-induced TNF-α production from human PBMC; assay: LPS-induced TNF-α production from human PBMC; format: cell-based; conditions: LPS 100 ng/ml, 18-20 hours
Method: Lipopolysaccharide (LPS) is an endotoxin produced by gram-negative bacteria such as E. coli which induces production of many pro-inflammatory cytokines, including TNF-α. In peripheral blood mononuclear cells (PBMC), the TNF-α produced in response to LPS is derived from monocytes, which comprise approximately 5-20% of the total PBMC. Compounds were tested for the ability to inhibit LPS-induced TNF-α production from human PBMC as previously described (Muller et al., 1996, J. Med. Chem., 39:3238). PBMC from normal donors were obtained by Ficoll Hypaque (Pharmacia, Piscataway, N.J., USA) density centrifugation. Cells were cultured in RPMI (Life Technologies, Grand Island, N.Y., USA) supplemented with 10% AB±human serum (Gemini Bio-products, Woodland, Calif., USA), 2 mM L-glutamine, 100 U/ml penicillin, and 100 μg/ml streptomycin (Life Technologies).
PBMC (2×10^5 cells) were plated in 96-well flat-bottom Costar tissue culture plates (Corning, N.Y., USA) in triplicate. Cells were stimulated with LPS (Sigma, St. Louis, Mo., USA) at 100 ng/ml in the absence or presence of compounds. Compounds (Celgene Corp., Warren, N.J., USA) were dissolved in DMSO (Sigma) and further dilutions were done in culture medium immediately before use. The final DMSO concentration in all samples was 0.25%. Compounds were added to cells one hour before LPS stimulation. […]

[7] = system: CD18 expression on neutrophils; assay: fMLF-induced CD18 expression on neutrophils; format: cell-based; conditions: Neutrophil; human neutrophils, 30 nM fMLF
Method: CD18/CD11b (Mac-1) expression on neutrophils was measured as previously described (Derian et al., 1995, J. Immunol., 154:308-3 17) with the following modifications. Neutrophils were isolated as described above, then resuspended in complete medium at 1×10^6 cells/ml, pretreated with compounds at 10, 1, 0.1, 0.01, and 0 μM in duplicate at a final DMSO concentration of 0.1% for 10 minutes at 37° C. 5% CO2. Cells were then stimulated with 30 nM fMLF for 30 minutes and then chilled to 4° C. Cells were treated with rabbit IgG (Jackson ImmunoResearch Labs, West Grove, Pa., USA) (10 μg/1×10^6 cells) to block Fc receptors, stained with CD18-FITC and CD11b-PE (Becton Dickinson), and analyzed by flow cytometry on a FACSCalibur. CD18/CD11b expression (mean fluorescence) in the absence of stimulation was subtracted from all samples to obtain inhibition curves and calculate IC50 values.

[8] = target: PDE7 purified from Hut78 human T cells (Homo sapiens, UniProt Q13946); assay: PDE7 enzyme assay; format: biochemical; conditions: 10 nM cAMP
Chain of PDE7 purified from Hut78 human T cells (Q13946 whole entry): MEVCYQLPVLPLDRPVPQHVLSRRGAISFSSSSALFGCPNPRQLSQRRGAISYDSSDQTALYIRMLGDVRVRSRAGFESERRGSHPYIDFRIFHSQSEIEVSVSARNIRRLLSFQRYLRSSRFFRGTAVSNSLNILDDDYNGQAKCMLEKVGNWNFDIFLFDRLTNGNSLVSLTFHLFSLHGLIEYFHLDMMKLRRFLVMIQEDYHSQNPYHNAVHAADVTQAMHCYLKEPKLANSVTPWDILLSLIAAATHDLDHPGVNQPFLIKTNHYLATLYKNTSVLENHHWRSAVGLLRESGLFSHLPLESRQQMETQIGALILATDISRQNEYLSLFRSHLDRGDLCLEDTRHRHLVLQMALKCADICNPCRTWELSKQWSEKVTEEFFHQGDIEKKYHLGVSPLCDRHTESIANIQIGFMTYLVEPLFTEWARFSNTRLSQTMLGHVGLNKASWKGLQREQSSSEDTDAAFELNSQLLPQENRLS
Method: PDE7 is a cAMP-selective PDE expressed mainly in T cells and in skeletal muscle. T cell-derived cytokines such as IL-2 and IFN-γ are potentially regulatable via PDE7 inhibition. […] Compounds were tested against the PDE7 preparation in the presence of 10 nM cAMP as described for PDE4 in Table 1.

Chain of PDE3 from human platelets (Q14432 whole entry): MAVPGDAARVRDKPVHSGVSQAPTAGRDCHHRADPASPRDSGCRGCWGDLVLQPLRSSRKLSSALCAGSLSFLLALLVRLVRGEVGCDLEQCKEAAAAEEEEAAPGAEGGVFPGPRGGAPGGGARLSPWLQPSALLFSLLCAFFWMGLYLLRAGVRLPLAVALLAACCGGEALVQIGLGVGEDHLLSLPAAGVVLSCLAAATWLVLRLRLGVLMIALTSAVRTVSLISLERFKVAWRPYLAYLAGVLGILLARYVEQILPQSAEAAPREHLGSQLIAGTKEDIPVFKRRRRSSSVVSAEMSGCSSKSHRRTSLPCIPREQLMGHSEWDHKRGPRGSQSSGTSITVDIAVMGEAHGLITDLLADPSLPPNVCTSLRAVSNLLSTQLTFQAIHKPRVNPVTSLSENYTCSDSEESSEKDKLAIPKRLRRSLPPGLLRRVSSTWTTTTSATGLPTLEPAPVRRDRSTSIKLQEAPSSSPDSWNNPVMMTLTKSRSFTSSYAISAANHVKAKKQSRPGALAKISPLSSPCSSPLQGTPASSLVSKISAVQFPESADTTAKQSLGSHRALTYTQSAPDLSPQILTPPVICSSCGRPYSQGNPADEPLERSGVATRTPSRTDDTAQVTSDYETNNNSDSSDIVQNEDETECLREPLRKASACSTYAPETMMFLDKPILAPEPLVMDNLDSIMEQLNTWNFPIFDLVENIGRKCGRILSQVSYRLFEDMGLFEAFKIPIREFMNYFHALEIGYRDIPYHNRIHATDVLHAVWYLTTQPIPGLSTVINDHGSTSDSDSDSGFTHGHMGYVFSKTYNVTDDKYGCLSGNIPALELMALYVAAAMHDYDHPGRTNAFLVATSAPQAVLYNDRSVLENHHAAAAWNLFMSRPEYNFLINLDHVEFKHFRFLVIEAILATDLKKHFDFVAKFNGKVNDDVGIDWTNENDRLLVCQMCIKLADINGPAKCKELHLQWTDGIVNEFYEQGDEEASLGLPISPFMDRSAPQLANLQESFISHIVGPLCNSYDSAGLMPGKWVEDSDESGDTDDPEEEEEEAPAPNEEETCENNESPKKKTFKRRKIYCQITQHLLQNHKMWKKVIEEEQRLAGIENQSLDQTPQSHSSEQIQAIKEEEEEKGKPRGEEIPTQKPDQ

Compound: CCOc1cc(C(CS(C)(=O)=O)N2C(=O)c3cccc(NC(C)=O)c3C2=O)ccc1OC (single isomer, unassigned; (+)) [Compound A, (+)-2-[1-(3-ethoxy-4-methoxyphenyl)-2-methylsulfonylethyl]-4-acetylaminoisoindoline-1,3-dione]
- PDE Specificity Ratio PDE4/PDE3 ([1]; from Table 1 data): >1200 fold
- inhibition at 10 µM ([1]; read-out: PDE3 (% inhib at 10 μM)): 20%
- IC50 [2]: 0.083 µM
- aqueous solubility relative to the racemic mixture [3]: 3.5 fold
- IC50 [4]: 0.094 µM
- IC50 [5]: 0.046 µM
- IC50 [6]: 0.077 µM
- IC50 [7]: 0.39 µM
- IC50 [8]: 20.5 µM
